Target: P. falciparum apicoplast DNA polymerase (Pf-apPOL) (Plasmodium falciparum, UniProt Q8ILY1)
Assay: Fluorescence-based high-throughput DNA polymerase assay (molecular beacon), primary screen and dose-response;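 on % inhibition ApPOL 90': test concentration in µM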;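 on % inhibition apPOL 180': test concentration in µM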
Assay type: biochemical
Conditions: for DNA Pol: unit not given, 90 min, 10 µM
Outline: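 Single-point screening used 10 µM compound with 20 nM polymerase, 20 nM hairpin substrate and 6 µM dNTPs for 90 min at 25 °C. Confirmatory titrations (2.5–80 µM) followed fluorescence at three times, and IC50 was derived from a fit including a cooperativity term n.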

Sequence of P. falciparum apicoplast DNA polymerase (Pf-apPOL) (Q8ILY1 entry or part of it): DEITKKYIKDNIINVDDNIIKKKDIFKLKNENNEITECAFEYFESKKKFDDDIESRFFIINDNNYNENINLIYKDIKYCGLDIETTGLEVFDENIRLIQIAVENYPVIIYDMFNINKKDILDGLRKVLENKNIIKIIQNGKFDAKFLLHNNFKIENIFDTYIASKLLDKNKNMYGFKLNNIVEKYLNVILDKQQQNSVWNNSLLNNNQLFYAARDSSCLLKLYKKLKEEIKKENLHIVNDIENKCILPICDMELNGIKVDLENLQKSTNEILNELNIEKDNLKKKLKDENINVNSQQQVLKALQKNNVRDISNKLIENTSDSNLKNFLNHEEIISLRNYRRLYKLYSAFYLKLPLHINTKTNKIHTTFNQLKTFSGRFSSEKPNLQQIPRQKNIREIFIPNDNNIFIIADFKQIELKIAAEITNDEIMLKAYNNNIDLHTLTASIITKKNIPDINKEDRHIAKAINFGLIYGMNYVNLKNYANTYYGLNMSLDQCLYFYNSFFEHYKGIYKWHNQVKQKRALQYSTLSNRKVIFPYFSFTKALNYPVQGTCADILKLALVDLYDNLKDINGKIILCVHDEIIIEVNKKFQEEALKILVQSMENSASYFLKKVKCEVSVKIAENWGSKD

## CCCCSc1nnc2c(n1)OC(c1ccc([N+](=O)[O-])o1)Nc1ccccc1-2 (stereo not shown) [KU0065811]
DRC-1, concentration 2.5
  % inhibition Apo pol 10': 24.76%
  % inhibition apPOL 180': 8.192%
DRC-1, concentration 5
  % inhibition Apo pol 10': 28.8752%
  % inhibition apPOL 180': 3.59%
DRC-1, concentration 10
  % inhibition Apo pol 10': 64.0477%
  % inhibition apPOL 180': 30.0435%
DRC-1, concentration 20
  % inhibition Apo pol 10': 79.0403%
  % inhibition apPOL 180': 48.0622%
DRC-1, concentration 40
  % inhibition Apo pol 10': 87.9065%
  % inhibition apPOL 180': 73.3106%
DRC-1, concentration 80
  % inhibition Apo pol 10': 83.2493%
  % inhibition apPOL 180': 82.0141%
DRC-1, 90', concentration 2.5
  % inhibition Apol 90': 16.1067%
DRC-1, 90', concentration 5
  % inhibition Apol 90': 15.8932%
DRC-1, 90', concentration 10
  % inhibition Apol 90': 47.3098%
DRC-1, 90', concentration 20
  % inhibition Apol 90': 63.8014%
DRC-1, 90', concentration 40
  % inhibition Apol 90': 80.4903%
DRC-1, 90', concentration 80
  % inhibition Apol 90': 83.7363%
DRC-2, 40', concentration 5 (unit not given)
  % inhibition Apol 40': 36%
DRC-2, 40', concentration 20 (unit not given)
  % inhibition Apol 40': 59%
DRC-2, 90', concentration 20 (unit not given)
  % inhibition ApPOL 90': 59%
DRC-2, concentration 2.5
  % inhibition Apo pol 5': 27%
  % inhibition apPOL 180': 11%
DRC-2, concentration 5
  % inhibition Apo pol 5': 36%
  % inhibition apPOL 180': 19%
DRC-2, concentration 5 (unit not given)
  % inhibition Apo pol 5': 36%
DRC-2, concentration 10
  % inhibition Apo pol 5': 51%
  % inhibition apPOL 180': 41%
DRC-2, concentration 20
  % inhibition Apo pol 5': 47%
  % inhibition apPOL 180': 53%
DRC-2, concentration 40
  % inhibition Apo pol 5': 37%
  % inhibition apPOL 180': 64%
DRC-2, concentration 80
  % inhibition Apo pol 5': 13%
  % inhibition apPOL 180': 58%
DRC-2, 40', concentration 2.5
  % inhibition Apol 40': 25%
DRC-2, 40', concentration 5
  % inhibition Apol 40': 36%
DRC-2, 40', concentration 10
  % inhibition Apol 40': 55%
DRC-2, 40', concentration 20
  % inhibition Apol 40': 59%
DRC-2, 40', concentration 40
  % inhibition Apol 40': 57%
DRC-2, 40', concentration 80
  % inhibition Apol 40': 42%
DRC-2, 90', concentration 2.5
  % inhibition ApPOL 90': 22%
DRC-2, 90', concentration 5
  % inhibition ApPOL 90': 32%
DRC-2, 90', concentration 10
  % inhibition ApPOL 90': 52%
DRC-2, 90', concentration 20
  % inhibition ApPOL 90': 59%
DRC-2, 90', concentration 40
  % inhibition ApPOL 90': 62%
DRC-2, 90', concentration 80
  % inhibition ApPOL 90': 50%
Primary screen value of the 186 hits
  DNA Pol: 52
Primary screen value, head "DNA Pol"
  DNA Pol: 52

## COc1ccc(NC(=O)Cn2ccc3c(=O)[nH]ccc32)cc1Cl [Molecule 10]
Supplemental file 2, sheet IC50 nontoxic compounds, Pf-apPOL
  IC50: 6.2 µM

From PMC9090415, “Discovery of small molecule inhibitors of Plasmodium falciparum apicoplast DNA polymerase” (Journal of Enzyme Inhibition and Medicinal Chemistry, 2022)
